In patent publication US20240390487A1, “TLR AGONISTS FOR REDUCING ACTIVATION-INDUCED PD-1 EXPRESSION ON T CELLS AND METHODS OF USE” (WISCONSIN ALUMNI RESEARCH FOUNDATION, priority 2016, published 2024):

Assays:
[1] = tested on: OT-1 transgenic splenocytes; test: In vitro stimulation of OT-1 splenocytes with peptide antigen in the presence of TLR agonists, surface markers by flow cytometry; type: cell-based, mice; parameters: key to 4-1BB / PD-1 / LAG3 / CD160 / CD244.2 / BTLA / VISTA: “+” means increase; “−” means decrease; “=” means no change; “=/+” or “=/−” means the change is there but not significant; “=/+” or “=/−” means the change is there but not significant; details: for 4-1BB / LAG3 / PD-1: OT-1 splenocytes, high affinity antigen plus TLR agonist, versus antigen alone
Procedure: T cell activation was measured by the levels of marker 4-1BB (a/k/a CD137, a member of the TNF receptor superfamily). The level of PD-1 expression was also assessed in these cells (FIG. 1B).
There was no difference in LAG3 expression between the control cells and cells treated with any of the assayed TLR agonists.
OT-1 transgenic splenocytes were treated with high affinity antigen in combination with Pam3CSK4 (TLR1 and 2 agonist), Gardiquimod (TLR7 agonist) or no TLR agonist and the levels of different checkpoint markers or T cell stimulation (measured by 4-1BB, FIG. 5) were assayed. The checkpoint markers BTLA (FIG. 6), VISTA (FIG. 7), CD160 (FIG. 8) and CD244.2 (FIG. 9) were assayed.
TLR stimulation at the time of T-cell activation in vitro affects expression of PD-1. Given that CpG-rich DNA is a TLR9 agonist and Lm is a TLR2 agonist, we questioned whether TLR stimulation with different ligands could similarly affect expression of different T-cell checkpoint inhibitors. […] OT-1 splenocytes were stimulated in vitro with peptides of different affinity for MHC class I (high-affinity SIINFEKL peptide (SEQ ID NO:1, OVA), moderate-affinity SIINTEKL peptide (SEQ ID NO:2, FT), or low-affinity SIINFEKP peptide (SEQ ID NO:7, LP)), alone or in the presence of different TLR ligands (TLR 1/2 (Pam3CSK4), TLR 3 (Poly I:C), TLR 4 (MPLAs), TLR 7 (Gardiquimod), TLR 7/8 (R848), or TLR 9 (ODN1826)). […] Similarly, LAG-3 expression increased by day 3, but was not affected by the presence of different TLR ligands. […] This reduction in PD-1 expression was observed most with the high-affinity SIINFEKL (SEQ ID NO:1) epitope, but also observed following activation with lower affinity epitopes. Given these findings, we evaluated expression of multiple other T-cell checkpoint molecules following T-cell activation in the presence of TLR ligands. […] Cytotoxic T-lymphocyte-associated protein 4 (CTLA-4) expression, however, was increased in the presence of TLR1/2 agonist. Similar results were found activating OT-1 cells with the lower affinity FT (SIINTEKL peptide (SEQ ID NO:2)), LP (SIINFEKP peptide (SEQ ID NO:7), or LY (SIINFEKY, SEQ ID NO:8) epitopes (FIG. 19).
In vitro T-cell stimulation: Spleens were collected from OT-1 mice, processed through a mesh screen, and splenocytes were isolated by centrifugation after red blood cell osmotic lysis with ammonium chloride/[…] lysis buffer (0.15 M NH4Cl, 10 mM KHCO3, 0.1 mM EDTA). Splenocytes were cultured at 2×10^6/mL in RPMI 1640 medium supplemented with L-glutamine, 10% fetal calf serum (FCS), 200 U/mL penicillin/streptomycin, 1% sodium pyruvate, 1% HEPES, 50 μM β-MeOH, and 2 μg/mL of the designated peptide. TLR agonists were all purchased from InvivoGen (San Diego, CA) and added one hour before peptides at the following optimal concentrations based on preliminary studies and previously reported results: 300 ng/ml Pam3CSK4, 10 μg/mL Poly(I:C) HMW, 10 μg/ml MPLAs, 3 μg/ml Gardiquimod, 10 μg/ml R848, 5 μM ODN 1826. At the time points indicated, cells were stained, fixed for 15 min at 4° C. in cytofix (BD Biosciences (BD), San Jose, CA; 554655), and frozen in FCS+10% DMSO. After all time points were collected, cells from all times were thawed, rinsed and resuspended in PBS+3% FCS+1 mM EDTA and analyzed by flow cytometry. Cells were stained for 30 min at 4° C. in a 1:4 dilution of brilliant stain buffer (BD 563794) in PBS+3% FCS+1 mM EDTA. In order to assess co-stimulation, blocking antibodies for CD80 (0.6 μg/mL), CD86 (0.25 μg/mL) or OX40L (0.6 μg/mL) were added 1 hour prior to antigen.

OT-1 CD8+ T cells = test: Adoptive transfer of OT-1 T cells and immunization of C57BL/6 mice, marker expression on splenic OT-1 T cells; type: in vivo
Source text: Vaccine type can affect expression of T-cell checkpoint molecules on activated CD8+ T cells: This Example used an ovalbumin vaccination model. OT-1 cells were adoptively transferred to naïve C57BL/6 mice. The day after transfer, mice were immunized once with (a) DNA encoding ovalbumin, (b) Listeria monocytogenes (Lm) encoding ovalbumin, (c) OVA257-264 peptide (SIINFEKL (SEQ ID NO:1)), (d) SIINFEKL peptide (SEQ ID NO:1) with DNA vector, (e) DNA vector alone, (f) Lm encoding control vector with no antigen, or (g) NS (non-specific) peptide. Splenocytes were collected the day after vaccination for expression of cell surface markers on antigen-specific OT-1 cells. […] LAG-3 expression was not reduced in the presence of Lm co-administered with peptide.
TLR stimulation at the time of T-cell activation reduced expression of PD-1 in vivo: To determine whether TLR stimulation at the time of T-cell activation with vaccination elicited a similar reduction in PD-1 in vivo, OT-1 cells were adoptively transferred to naïve C57BL/6 mice as above, and immunized once with OVA or FT peptide (or non-specific peptide) one day later in the presence or absence of a TLR 1/2, TLR7, or TLR9 ligand. Splenocytes were collected from groups up to 14 days after immunization and evaluated for expression of 4-1BB, PD-1 and LAG-3.
Adoptive transfer and immunization of wild type C57BL/6 (B6) mice: OT-1 splenocytes were harvested and CD8+ T cells were isolated as described above. 2×10^6 OT-1 T cells were adoptively transferred into 6- to 10-week old female B6 mice via intraperitoneal injection. The day following transfer, mice were immunized subcutaneously with 100 μg SIINFEKL peptide (SEQ ID NO:1) in PBS without adjuvant, intradermally with 100 μg plasmid encoding full length secreted chicken egg ovalbumin (pCI-neo-sOVA (psOVA), Addgene plasmid #25098, Cambridge, MA), intraperitoneally with 5×10^6 cfu of a Listeria monocytogenes vector encoding ovalbumin (Lm-OVA, gift of JD Sauer), or vehicle or corresponding wild-type Lm or DNA plasmid vector. TLR agonists were co-injected with the vaccine at the following concentrations: 20 μg/mouse Pam3CSK4, 100 μg/mouse Gardiquimod, 50 μg/mouse ODN 1826, or vehicle. Mice were euthanized at the times indicated. Spleens were collected, processed as described above, and T-cell populations analyzed by flow cytometry. Data collected on different days were normalized using rainbow beads (Spherotech, Lake Forest, IL; RFP-30-5A).

[2] = tested on: ovalbumin-expressing E.G7 cells; test: Ovalbumin tumor treatment study: peptide immunization with or without TLR agonist; type: in vivo, mice; details: FT peptide relative to high-affinity OVA peptide
Procedure: OT-1 T cells were then adoptively transferred and the following day were immunized with SIINFEKL (SEQ ID NO:1, OVA) or FT peptide (SEQ ID NO:2) alone or with TLR1/2 or TLR7 agonist. Other groups were immunized with 100 μg anti-PD-1 antibody delivered the following day. […] This anti-tumor effect was not observed with TLR agonist treatment alone (FIG. 22). […] This was associated with a reduced PD-1 (but not LAG-3) expression on CD8+ TIL (FIG. 17C).
Ovalbumin tumor treatment studies: 10^6 ovalbumin-expressing E.G7 PD-L 1^high cells were injected subcutaneously into 6- to 10-week old female B6 mice. Ten to fifteen days post injection, when tumors were palpable and similarly sized (˜0.2 cm^3), 2×10^6 naïve OT-1 CD8+ T cells were adoptively transferred to each mouse as described above. The following day mice were immunized subcutaneously with 100 μg of an individual peptide (SIINFEKL (SEQ ID NO:1) or variant, LifeTein) in PBS, with or without TLR agonists as described above. In the group receiving PD-1 blocking antibody, 100 μg of antibody (clone G4 (52)) was injected intraperitoneally on the day following vaccination. Tumor volume was measured over time using calipers and calculated in cubic centimeters according to the following formula: (π/6)*(long axis)*(short axis)^2. Tumors obtained at necropsy were digested in media containing 1 mg/mL collagenase and 20 μg/mL DNAse I (Sigma, St. Louis, MO) for 1-2 hours at 37° C. and passed through a 100-μm screen to obtain a single-cell suspension. Tumor cells and tumor-infiltrating lymphocytes (TILs) were stained and analyzed by flow cytometry using the following panel: CD3-FITC (BD 555274), CD4-BUV395 (BD 563790), CD8-BUV805 (BD 564920), LAG-3-BV711 (BD 563179), PD1-PECF594 (BD 562523), PDL1-PECy7 (BD 558017), 41BB-PerCPeF710) (eBioscience 46-1371-82), CD45-BV510 (BD 563891) and Live/Dead Ghost dye 780 (Tonbo, San Diego, CA 13-0865-T100) or corresponding fluorescently labeled IgG controls.

ODN1826
4-1BB [1]: = | LAG3 [1]: =/− | PD-1 [1]: − | PD-1 expression on activated T cells ([1]; in words, SIINFEKL plus TLR agonist versus antigen alone, up to 4 days): significantly reduced | PD-1 expression on OT-1 CD8+ T cells in vivo (OT-1 CD8+ T cells; OVA or FT peptide immunization with TLR ligand versus peptide alone, splenocytes up to 14 days, early after T-cell activation): significantly reduced

SIINTEKL [FT peptide]
anti-tumor response of peptide immunization alone [2]: greater anti-tumor response

SIINFEKL [SIINFEKL peptide]
T-cell activation as measured by 4-1BB expression, by peptide affinity ([1]; OVA versus FT and LP peptides): greatest T-cell activation | LAG-3 expression by vaccine type (OT-1 CD8+ T cells; one immunization, splenocytes after vaccination, Lm co-administered with peptide): significantly increased | 4-1BB expression by vaccine type (OT-1 CD8+ T cells; one immunization, splenocytes after vaccination, Lm or DNA co-administered at the site of peptide immunization): strongest activation | PD-1 expression by vaccine type (OT-1 CD8+ T cells; one immunization, splenocytes after vaccination, Lm or DNA co-administered with peptide versus peptide): significantly increased

CCOCc1nc2c(N)nc3ccccc3c2n1CC(C)(C)O [R848, Resiquimod]
4-1BB [1]: = | LAG3 [1]: = | PD-1 [1]: −
